Laboratory results from paper PMC8086025, “A benzopyran with antiarrhythmic activity is an inhibitor of Kir3.1-containing potassium channels” (The Journal of Biological Chemistry, 2021).

How the values were obtained:
Dopamine transporter = target: T1, Dopamine transporter (Homo sapiens, UniProt Q01959); assay: Radioligand binding, [3H]BTCP
T1 construct: expressed in transfected cells; host or cells: CHO cells

Kv4.3 = Kv4.3 (Homo sapiens, UniProt Q9UK17); assay: Cloned cardiac ion channel patch clamp, Kv4.3; type: cell-based
Experimental: For the data shown in Table S6, HEK293 cells expressing Kir3.1/4, Kir6.2/SUR2A (provided by Dr Andrew Tinker), Kir3.4, Kir2.1, and CHO cell lines stably expressing hERG KV1.5, KV4.3, NaV1.5 were maintained in media containing 10% FCS and appropriate selection antibiotic. Cells were grown either in suspension or in T-flasks and routinely passaged. Cells for patch clamping experiments were plated onto glass cover slips prior to use. Cells for automated patch clamping experiments were freshly prepared on each experimental day.
Standard giga-seal whole-cell patch-clamp techniques were performed at room temperature using glass pipettes (2–5 MΩ). HEKA EPC9/10 amplifiers and Pulse software were used for data acquisition. Series resistance was compensated by >70%. Experimental solutions are given under Supporting information. […]
Ionic current recordings were analyzed using HEKA software. […]
Inhibition of current (or leak-subtracted current) was calculated from steady-state current recorded in the absence (IControl) and presence of test-article (IIntervention). […]
Concentration-response data were fitted with a sigmoidal function of the form above, where YMin and YMax represent maximum and minimum current inhibition which were constrained to 100 and 0 respectively and x is the Log[DRUG (M)] based on GraphPad Prism analysis. % inhibition was calculated as in Equation 1. […]

Kir6.1/SUR2B = Kir6.1/SUR2B (Homo sapiens, UniProt O60706+Q15842); assay: Cloned cardiac ion channel electrophysiology, Kir6.1/SUR2B; type: cell-based
Experimental: page 24: APPENDIX 4- EQUATIONS %Inhibition = (1 - IIntervention/IControl) × 100 Equation 1 - Percentage Inhibition Inhibition of current (or leak-subtracted current) was calculated from steady-state current recorded in the absence (IControl) and presence of test-article (IIntervention). […]

Adenosine A1 = target: T2, Adenosine A1 (Homo sapiens, UniProt P30542); assay: Radioligand binding, [3H]DPCPX; conditions: read-out: % Specific Binding at 10 µM
T2 construct: expressed in transfected cells; host or cells: CHO cells

[1] = target: T3, Non-steroid nuclear receptors PPARγ (Homo sapiens, UniProt P37231); assay: Radioligand binding, [3H]rosiglitazone; conditions: read-out: % Specific Binding at 10 µM
T3 construct: purchased; host or cells: E. coli

[2] = Plasma protein binding, human; type: in vitro ADME; conditions: read-out: Human PPB (converted)
Kv1.7 = Kv1.7 (Homo sapiens, UniProt Q96RP8); assay: Cloned cardiac ion channel electrophysiology, Kv1.7; type: cell-based
Experimental: Table S7-1. Table detailing composition (in mM) of external experimental assay solutions […]
%Inhibition = (1 − IIntervention/IControl) × 100
Equation 1 – Percentage Inhibition
Inhibition of current (or leak-subtracted current) was calculated from steady-state current recorded in the absence (IControl) and presence of test-article (IIntervention).
Equation 2 – Concentration-response curve
Concentration-response data were fitted with a sigmoidal function of the form above, where YMin and YMax represent maximum and minimum current inhibition which were constrained to 100 and 0 respectively and x is the Log[DRUG (M)] based on GraphPad Prism analysis. % inhibition was calculated as in Equation 1.
(also on this page, place not known: […] […] + −+= − HnxLogIC MinMax Min YYYInhibition )( 50101 )(% inhi bition Log[ DRUG analysis .) […]

[3] = target: Kir3.4/4(N179D) channel mutant (Homo sapiens, UniProt P48544, N179D); type: cell-based; conditions: 1 μM, TEVC
Chain of Kir3.4/4(N179D) channel mutant (P48544 whole entry, stated change not applied): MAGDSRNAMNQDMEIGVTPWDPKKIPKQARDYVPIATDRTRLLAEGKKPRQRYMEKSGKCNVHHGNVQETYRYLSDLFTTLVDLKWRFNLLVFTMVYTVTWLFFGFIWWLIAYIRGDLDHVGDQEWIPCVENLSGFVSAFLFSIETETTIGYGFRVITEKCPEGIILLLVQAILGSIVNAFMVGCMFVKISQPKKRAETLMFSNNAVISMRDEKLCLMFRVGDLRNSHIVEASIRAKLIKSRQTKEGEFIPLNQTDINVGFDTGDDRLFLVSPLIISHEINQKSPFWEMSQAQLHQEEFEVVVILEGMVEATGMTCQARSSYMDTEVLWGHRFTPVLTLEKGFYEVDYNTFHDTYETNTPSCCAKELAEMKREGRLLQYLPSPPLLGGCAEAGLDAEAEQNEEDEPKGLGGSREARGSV
Chain of Kir3.4/4(N179D) channel mutant (P48544 whole entry N179D): as the sequence (P48544 whole entry, stated change not applied) above, with N179D counted along it

T1 sequence (Q01959 whole entry): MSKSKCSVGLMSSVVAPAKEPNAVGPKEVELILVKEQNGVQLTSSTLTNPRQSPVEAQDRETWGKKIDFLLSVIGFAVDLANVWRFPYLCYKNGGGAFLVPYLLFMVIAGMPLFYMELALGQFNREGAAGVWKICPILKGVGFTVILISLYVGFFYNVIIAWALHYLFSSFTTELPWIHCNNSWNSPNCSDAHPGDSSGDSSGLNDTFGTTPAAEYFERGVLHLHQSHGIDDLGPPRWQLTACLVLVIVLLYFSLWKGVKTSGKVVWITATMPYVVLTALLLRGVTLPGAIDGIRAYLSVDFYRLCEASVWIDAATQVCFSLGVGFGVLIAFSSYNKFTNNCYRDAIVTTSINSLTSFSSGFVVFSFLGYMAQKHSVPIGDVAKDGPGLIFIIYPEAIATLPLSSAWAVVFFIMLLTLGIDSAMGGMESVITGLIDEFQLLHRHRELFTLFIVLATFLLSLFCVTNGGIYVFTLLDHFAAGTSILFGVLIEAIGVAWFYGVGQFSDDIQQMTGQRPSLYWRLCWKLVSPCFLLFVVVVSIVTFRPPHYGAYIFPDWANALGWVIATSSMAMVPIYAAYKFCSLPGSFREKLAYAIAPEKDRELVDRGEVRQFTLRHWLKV
Chain of Kv1.7 (Q96RP8 whole entry): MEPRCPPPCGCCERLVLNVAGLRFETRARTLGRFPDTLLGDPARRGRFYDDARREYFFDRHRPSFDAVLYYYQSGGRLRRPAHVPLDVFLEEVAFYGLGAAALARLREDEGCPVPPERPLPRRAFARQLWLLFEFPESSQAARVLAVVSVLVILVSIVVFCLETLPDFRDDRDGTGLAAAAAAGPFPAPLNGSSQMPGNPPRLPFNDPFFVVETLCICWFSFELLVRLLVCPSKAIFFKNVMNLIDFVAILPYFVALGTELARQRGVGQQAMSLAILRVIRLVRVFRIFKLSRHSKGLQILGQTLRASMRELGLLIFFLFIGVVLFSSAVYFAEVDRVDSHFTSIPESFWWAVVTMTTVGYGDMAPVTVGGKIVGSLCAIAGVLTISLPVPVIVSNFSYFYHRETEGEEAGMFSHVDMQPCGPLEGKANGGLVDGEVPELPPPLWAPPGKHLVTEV
Chain of Kir6.1/SUR2B (Q15842 whole entry): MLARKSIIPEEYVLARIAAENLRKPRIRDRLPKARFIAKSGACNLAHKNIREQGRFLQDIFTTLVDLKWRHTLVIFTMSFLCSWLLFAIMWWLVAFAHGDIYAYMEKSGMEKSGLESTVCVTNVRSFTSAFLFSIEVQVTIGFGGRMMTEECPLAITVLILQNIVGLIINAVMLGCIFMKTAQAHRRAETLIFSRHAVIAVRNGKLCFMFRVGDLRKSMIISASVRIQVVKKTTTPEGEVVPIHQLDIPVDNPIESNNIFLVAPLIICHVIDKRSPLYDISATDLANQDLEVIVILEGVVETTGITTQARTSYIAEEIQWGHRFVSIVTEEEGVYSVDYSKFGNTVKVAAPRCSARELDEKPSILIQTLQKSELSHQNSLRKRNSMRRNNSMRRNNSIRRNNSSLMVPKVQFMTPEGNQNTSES
Chain of Kir6.1/SUR2B (O60706 1-1549 isoform O60706-2): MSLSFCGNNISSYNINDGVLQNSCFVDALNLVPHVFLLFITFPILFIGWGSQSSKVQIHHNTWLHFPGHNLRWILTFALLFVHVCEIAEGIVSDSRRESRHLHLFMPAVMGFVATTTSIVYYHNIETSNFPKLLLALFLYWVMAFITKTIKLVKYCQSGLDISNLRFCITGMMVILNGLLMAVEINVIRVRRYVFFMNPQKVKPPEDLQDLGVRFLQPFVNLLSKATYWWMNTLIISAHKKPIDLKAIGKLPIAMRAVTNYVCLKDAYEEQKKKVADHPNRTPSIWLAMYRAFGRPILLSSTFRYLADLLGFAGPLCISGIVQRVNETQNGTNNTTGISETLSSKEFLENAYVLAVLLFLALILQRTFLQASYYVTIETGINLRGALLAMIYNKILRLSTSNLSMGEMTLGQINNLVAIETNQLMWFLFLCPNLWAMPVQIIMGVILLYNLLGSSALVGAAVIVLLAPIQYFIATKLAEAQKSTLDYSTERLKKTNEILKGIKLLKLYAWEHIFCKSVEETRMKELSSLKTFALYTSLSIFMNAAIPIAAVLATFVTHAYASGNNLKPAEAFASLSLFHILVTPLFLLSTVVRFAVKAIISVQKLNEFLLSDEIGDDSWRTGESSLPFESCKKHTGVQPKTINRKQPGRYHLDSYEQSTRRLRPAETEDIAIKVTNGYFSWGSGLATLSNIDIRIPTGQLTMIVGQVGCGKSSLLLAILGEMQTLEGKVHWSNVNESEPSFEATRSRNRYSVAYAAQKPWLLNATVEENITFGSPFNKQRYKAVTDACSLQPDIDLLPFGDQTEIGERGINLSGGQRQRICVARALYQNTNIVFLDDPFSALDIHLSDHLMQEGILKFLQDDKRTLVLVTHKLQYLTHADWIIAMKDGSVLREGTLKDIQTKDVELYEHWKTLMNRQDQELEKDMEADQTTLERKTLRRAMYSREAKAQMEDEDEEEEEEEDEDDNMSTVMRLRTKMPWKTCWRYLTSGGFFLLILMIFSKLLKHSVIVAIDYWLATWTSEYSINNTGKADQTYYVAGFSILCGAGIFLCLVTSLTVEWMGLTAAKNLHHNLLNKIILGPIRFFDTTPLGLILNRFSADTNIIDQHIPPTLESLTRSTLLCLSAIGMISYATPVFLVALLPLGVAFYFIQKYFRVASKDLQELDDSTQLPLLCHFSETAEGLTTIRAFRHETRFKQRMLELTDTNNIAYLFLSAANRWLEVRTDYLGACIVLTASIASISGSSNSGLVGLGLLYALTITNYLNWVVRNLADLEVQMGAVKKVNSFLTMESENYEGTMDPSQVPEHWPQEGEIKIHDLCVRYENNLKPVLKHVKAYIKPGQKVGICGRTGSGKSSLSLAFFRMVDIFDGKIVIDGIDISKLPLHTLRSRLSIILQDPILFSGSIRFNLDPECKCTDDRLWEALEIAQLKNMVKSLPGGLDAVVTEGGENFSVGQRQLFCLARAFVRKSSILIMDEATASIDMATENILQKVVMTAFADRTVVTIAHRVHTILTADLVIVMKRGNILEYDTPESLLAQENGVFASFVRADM
T2 sequence (P30542 whole entry): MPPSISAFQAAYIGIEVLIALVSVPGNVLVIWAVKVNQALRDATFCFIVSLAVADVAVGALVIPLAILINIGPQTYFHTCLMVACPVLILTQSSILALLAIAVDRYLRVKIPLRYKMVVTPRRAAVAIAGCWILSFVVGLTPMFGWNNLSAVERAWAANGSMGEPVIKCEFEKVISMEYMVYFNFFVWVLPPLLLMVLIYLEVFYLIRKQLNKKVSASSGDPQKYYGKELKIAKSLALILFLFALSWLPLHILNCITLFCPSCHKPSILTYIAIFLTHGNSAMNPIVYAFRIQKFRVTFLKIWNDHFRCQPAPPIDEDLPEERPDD
T3 sequence (P37231 whole entry): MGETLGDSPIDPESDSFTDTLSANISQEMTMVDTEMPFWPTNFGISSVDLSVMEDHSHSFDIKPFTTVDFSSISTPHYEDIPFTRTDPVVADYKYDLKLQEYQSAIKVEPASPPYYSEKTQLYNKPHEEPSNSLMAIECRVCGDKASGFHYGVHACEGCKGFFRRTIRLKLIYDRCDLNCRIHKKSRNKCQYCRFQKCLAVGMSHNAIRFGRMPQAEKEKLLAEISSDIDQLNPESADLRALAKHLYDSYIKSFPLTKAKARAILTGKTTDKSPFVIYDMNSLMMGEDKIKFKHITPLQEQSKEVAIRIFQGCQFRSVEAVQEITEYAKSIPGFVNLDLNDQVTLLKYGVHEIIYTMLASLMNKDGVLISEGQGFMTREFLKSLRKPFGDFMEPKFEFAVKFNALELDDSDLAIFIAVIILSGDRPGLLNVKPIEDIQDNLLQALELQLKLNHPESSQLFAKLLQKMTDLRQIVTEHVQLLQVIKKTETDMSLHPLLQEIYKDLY

Cc1cc(CO)nc2cc3c(cc12)OC(C)(C)[C@H](O)[C@H]3NCCc1ccccc1 [BP-G1, (3R,4S)-7-(hydroxymethyl)-2,2,9-trimethyl-4-(2-phenylethylamino)-3,4-dihydropyrano[2,3-g]quinolin-3-ol]
IC50 (Dopamine transporter): 1 µM
Ki (Dopamine transporter): 0.55 µM
nH, Dopamine transporter (h) (Dopamine transporter): 1
% Specific Binding at 10 µM (Dopamine transporter; 10 µM): 91.2%
inhibition at 10 µM (Dopamine transporter; 10 µM, read-out: % Specific Binding at 10 µM): 91.2%
IC50 (Kv4.3): 11.3 µM
IC50 (Kir6.1/SUR2B): 9.9 µM
inhibition at 10 µM (Adenosine A1): 38.4%
inhibition at 10 µM [1]: < 50%
fraction unbound [2]: 0.03
IC50 (Kv1.7): 7 µM
inhibition of Kir3.4/4(N179D) [3]: did not inhibit
